Earlier results as cited in patent US20180250233A1, “TABLETS HAVING MEDIA INDEPENDENT ACTIVE SUBSTANCE DELIVERY” (MERCK PATENT GMBH, priority 2015, published 2018).

elimination half-life (in vivo): 2 to 6 h
bioavailability (oral administration, pronounced first-pass metabolism): 25-30%
Structure (SMILES): CC(C)NCC(O)COc1cccc2ccccc12 (centres unmarked) [propranolol]
